Laboratory results: patent US20230159496A1, “COMPOUNDS AND METHODS FOR MODULATING SPLICING” (REMIX THERAPEUTICS INC., priority 2020, published 2023)
Where two headings read alike, the source gives them in different places.

Assays:
Type in all cases: cell-based
[1] = test system: HTT CJ mRNA; assay: Gene panel canonical junction qPCR assay, HTT; details: decrease in CJ mRNA levels, gene panel; read-out: HTT IC50
Procedure: (§1) The expression of a target mRNA was measured by detecting the formation of an exon-exon junction in the canonical transcript (CJ). A compound mediated exon-inclusion event was detected by observing an increase in formation of a new junction with an alternative exon (AJ). Real-time qPCR assays were used to detect these splicing switches and interrogate the potency of various compounds towards different target genes. A high-throughput real time quantitative PCR (RT-qPCR) assay was developed to measure these two isoforms of the mRNA (CJ and AJ) for an exemplary gene, HTT, together with a control housekeeping gene, GAPDH or GUSB or PPIA, used for normalization. Briefly, the A673 or K562 cell line was treated with various compounds described herein (e.g., compounds of Formula (I)). After treatment, the levels of the HTT mRNA targets were determined from each sample of cell lysate by cDNA synthesis followed by qPCR. The A673 cell line was cultured in DMEM with 10% FBS. Cells were diluted with full growth media and plated in a 96-well plate (15,000 cells in 100 ul media per well). The plate was incubated at 37° C. with 5% CO2 for 24 hours to allow cells to adhere. An 11-point 3-fold serial dilution of the compounds was made in DMSO then diluted in media in an intermediate plate. Compounds were transferred from the intermediate plate to the cell plate with the top dose at a final concentration of 10 uM in the well. Final DMSO concentration was kept at or below 0.25%. The cell plate was returned to the incubator at 37° C. with 5% CO2 for an additional 24 hours. The K562 cell line was cultured in IMDM with 10% FBS. For K562, cells were diluted with full growth media and plated in either a 96-well plate (50,000 cells in 50 uL media per well) or a 384-well plate (8,000-40,000 cells in 45 uL media per well). An 11-point 3-fold serial dilution of the compounds were made in DMSO then diluted in media in an intermediate plate. Compound was transferred from the intermediate plate to the cell plate with the top dose at a final concentration of 10 uM in the well. Final DMSO concentration was kept at or below 0.25%. Final volume was 100 uL for 96-well plate and 50 uL for 384-well plate. The cell plate was then placed in an incubator at 37° C. with 5% CO2 for 24 hours. The cells were then gently washed with 50 uL-100 uL cold PBS before proceeding to addition of lysis buffer. 30 uL-50 uL of room temperature lysis buffer with DNAse I (and optionally RNAsin) was added to each well. Cells were shaken/mixed thoroughly at room temperature for 5-10 minutes for lysis to take place and then 3 uL-5 uL of room temperature stop solution was added and wells were shaken/mixed again. After 2-5 minutes, the cell lysate plate was transferred to ice for RT-qPCR reaction setup. The lysates could also be frozen at −80° C. for later use. In some cases, a direct lysis buffer was used. An appropriate volume of 3× lysis buffer (10 mM Tris, 150 mM NaCl, 1.5%-2.5% Igepal and 0.1-1 U/uL RNAsin, pH 7.4) was directly added to either K562 or A673 cells in media and mixed by pipetting 3 times. The plates were then incubated at room temperature with shaking/rocking for 20-50 minutes to allow for lysis to take place. After this time, the cell lysate plate was transferred to ice to set up for the RT-qPCR reactions. The lysates could also be frozen at −80° C. for later use. To set up 10 uL RT-qPCR reactions, cell lysates were transferred to 384-well qPCR plates containing the master mix according to the table below. The plates were sealed, gently vortexed, and spun down before the run. The volumes were adjusted accordingly in some instances where the reaction was carried in 20 uL. The table below summarizes the components of the RT-qPCR reactions: The RT-qPCR reaction was performed using a QuantStudio (ThermoFisher) under the following fast cycling conditions. All samples and standards were analyzed at least in duplicate.

[2] = test system: HTT mRNA; assay: Splicing assay (RT-qPCR) monitoring HTT canonical junction (CJ) and alternative junction (AJ) mRNA isoforms; details: A673 or K562 cells, 24 h treatment, top dose 10 uM
In short: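 A673 or K562 cells treated 24 h at 37 °C with an 11-point 3-fold dilution (top 10 uM final, DMSO ≤0.25%). Lysates assayed by one-step RT-qPCR for HTT CJ and AJ isoforms, normalized to GAPDH, GUSB (K562) or PPIA (A673).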

[3] = test system: Target C CJ mRNA; assay: Gene panel canonical junction qPCR assay, Target C; details: decrease in CJ mRNA levels, gene panel; read-out: Target C IC50
Procedure: as §1

[4] = test system: SMN2 CJ mRNA; assay: Gene panel canonical junction qPCR assay, SMN2; details: decrease in CJ mRNA levels, gene panel; read-out: SMN2 IC50
Procedure: as §1

[5] = decrease in CJ mRNA (50% response), read-out: HTT CJ AC50
[6] = increase in AJ mRNA (50% response), read-out: HTT AJ AC50

Row | IC50 [1] | IC50 [3] | IC50 [4] | SMILES | AC50 [2, 5] | AC50 [2, 6]
1 | > 10000 nM | > 10000 nM | 1000 to 10000 nM | Cc1cn2nc(-c3ccc4c(c3)CCN(C3CCN(C)C3)C4=O)cc(C)c2n1 (centres unmarked) [Compound 282, 6-{2,8-dimethylimidazo[1,2-b]pyridazin-6-yl}-2-(1-methylpyrrolidin-3-yl)-3,4-dihydroisoquinolin-1-one] | > 10000 nM | > 10000 nM
2 | 100 to 1000 nM | 100 to 1000 nM | < 100 nM | Cc1cn2nc(-c3ccc4c(=O)n(C5CCNCC5)cnc4c3)nc2c(C)n1 [Compound 287, 7-{6,8-dimethyl-[1,2,4]triazolo[1,5-a]pyrazin-2-yl}-3-(piperidin-4-yl)quinazolin-4-one] | 100 to 1000 nM | 100 to 1000 nM
3 | > 10000 nM | > 10000 nM | > 10000 nM | CN1CCC(Nc2ccc3c(=O)n(-c4ccc5cn(C)nc5c4)cnc3c2)CC1 [Compound 203, 3-(2-methyl-2H-indazol-6-yl)-7-((1-methylpiperidin-4-yl)amino)quinazolin-4(3H)-one] | > 10000 nM | > 10000 nM
4 | > 10000 nM | 1000 to 10000 nM | > 10000 nM | CN1CCC(c2ccc3c(=O)n(-c4ccc5nn(C)cc5c4)cnc3c2)CC1 [Compound 177, 3-(2-methyl-2H-indazol-5-yl)-7-(1-methylpiperidin-4-yl)quinazolin-4(3H)-one] | > 10000 nM | > 10000 nM
5 | 100 to 1000 nM | 100 to 1000 nM | < 100 nM | Cc1cn2cc(-c3ccc4c(=O)n(C5CCNC6(CC6)C5)cnc4c3)cc(F)c2n1 (centres unmarked) [Compound 236, 7-(8-fluoro-2-methylimidazo[1,2-a]pyridin-6-yl)-3-(4-azaspiro[2.5]octan-7-yl)quinazolin-4(3H)-one] | 100 to 1000 nM | 100 to 1000 nM
6 | > 10000 nM | > 10000 nM | 100 to 1000 nM | Cc1cc(-c2ccc3c(=O)n(C4CCN(C)CC4)cnc3c2F)cc2cn(C)nc12 [Compound 235, 7-(2,7-dimethyl-2H-indazol-5-yl)-8-fluoro-3-(1-methylpiperidin-4-yl)quinazolin-4(3H)-one] | > 10000 nM | > 10000 nM
7 | > 10000 nM | > 10000 nM | 100 to 1000 nM | CN1CCC(n2cnc3cc(-c4ccc5nn(C)cc5c4)ccc3c2=O)CC1 [Compound 208, 7-(2-methyl-2H-indazol-5-yl)-3-(1-methylpiperidin-4-yl)quinazolin-4(3H)-one] | > 10000 nM | 1000 to 10000 nM
8 | 100 to 1000 nM | 100 to 1000 nM | < 100 nM | Cc1cn2nc(-c3ccc4c(=O)n(C5CCCNCC5)ncc4c3)cc(C)c2n1 (centres unmarked) [Compound 283, 2-(azepan-4-yl)-6-{2,8-dimethylimidazo[1,2-b]pyridazin-6-yl}phthalazin-1-one] | 100 to 1000 nM | 100 to 1000 nM
9 | > 10000 nM | > 10000 nM | > 10000 nM | Cc1cc(-c2ccc3nc(NC4CCN(C)CC4)[nH]c(=O)c3c2)cc2cn(C)nc12 [Compound 167] | > 10000 nM | > 10000 nM
10 | < 100 nM | < 100 nM | < 100 nM | Cc1cn2cc(-c3cc(F)c4c(=O)n(C5CCNCC5)cnc4c3)cc(F)c2n1 [Compound 230, 5-fluoro-7-{8-fluoro-2-methylimidazo [1,2-a]pyridin-6-yl}-3-(piperidin-4-yl)quinazolin-4-one] | < 100 nM | < 100 nM
11 | 1000 to 10000 nM | > 10000 nM | 1000 to 10000 nM | Cc1cc(-c2ccc3c(=O)n(N4CCN(C)CC4)cnc3c2)cc2cn(C)nc12 [Compound 175, 7-(2,7-dimethyl-2H-indazol-5-yl)-3-(4-methylpiperazin-1-yl)quinazolin-4(3H)-one] | > 10000 nM | 1000 to 10000 nM
12 | 1000 to 10000 nM | > 10000 nM | 100 to 1000 nM | Cc1cn2nc(-c3ccc4c(c3)CCN(C3CCNCC3)C4=O)cc2c(C)n1 [Compound 223] | 1000 to 10000 nM | 1000 to 10000 nM
13 | > 10000 nM | > 10000 nM | 100 to 1000 nM | Cc1cn2cc(-c3ccc4c(c3)CCN(C3CCNCC3)C4=O)ncc2n1 [Compound 224] | > 10000 nM | > 10000 nM
14 | > 10000 nM | > 10000 nM | > 10000 nM | Cn1cc2ccc(-n3cnc4cc(NC5CCNCC5)ccc4c3=O)cc2n1 [Compound 204, 3-(2-methyl-2H-indazol-6-yl)-7-(piperidin-4-ylamino)quinazolin-4(3H)-one] | > 10000 nM | > 10000 nM
15 | < 100 nM | 100 to 1000 nM | < 100 nM | Cc1cn2nc(-c3ccc4c(=O)n(C5CCN(C)CC5)ncc4c3)cc(C)c2n1 [Compound 265] | < 100 nM | < 100 nM
16 | 1000 to 10000 nM | 1000 to 10000 nM | 100 to 1000 nM | Cc1cn2nc(-c3ccc4c(=O)n(C5CCN(C)C5)ncc4c3)cc(C)c2n1 (centres unmarked) [Compound 271, 6-{2,8-dimethylimidazo[1,2-b]pyridazin-6-yl}-2-(1-methylpyrrolidin-3-yl)phthalazin-1-one] | 1000 to 10000 nM | 1000 to 10000 nM
17 | > 10000 nM | > 10000 nM | > 10000 nM | Cc1cn2cc(-c3ccc4nc(N5CCNC6(CC6)C5)[nH]c(=O)c4c3)cc(F)c2n1 [Compound 191, 6-(8-fluoro-2-methylimidazo[1,2-a]pyridin-6-yl)-2-(4,7-diazaspiro[2.5]octan-7-yl)quinazolin-4(3H)-one] | > 10000 nM | > 10000 nM
18 | < 100 nM | 100 to 1000 nM | < 100 nM | Cc1cn2nc(-c3ccc4c(=O)n([C@@H]5CCN[C@H](C)C5)ncc4c3)cc(C)c2n1 [Compound 272] | < 100 nM | 100 to 1000 nM
19 | > 10000 nM | > 10000 nM | > 10000 nM | Cc1cn2cc(-n3cnc4cc(N5CCN(C)CC5)ccc4c3=O)cc(F)c2n1 [Compound 229, 3-(8-fluoro-2-methylimidazo[1,2-a]pyridin-6-yl)-7-(4-methylpiperazin-1-yl)quinazolin-4(3H)-one] | > 10000 nM | > 10000 nM
20 | 1000 to 10000 nM | > 10000 nM | < 100 nM | Cc1nc2c(F)cc(-c3ccc4c(=O)n(C5CCNCC5)cnc4c3)cc2s1 [Compound 285] | 1000 to 10000 nM | > 10000 nM
21 | < 100 nM | 100 to 1000 nM | < 100 nM | CCN1CCC(n2ncc3cc(-c4cc(C)c5nc(C)cn5n4)ccc3c2=O)CC1 [Compound 266] | < 100 nM | < 100 nM

Row | SMILES | IC50 [1] | IC50 [3] | IC50 [4] | AC50 [2, 5] | AC50 [2, 6]
22 | Cc1cc(-c2nc3ccc(N(C)C4CCN(C)CC4)cc3c(=O)[nH]2)cc2cn(C)nc12 [Compound 239, 2-(2,7-dimethyl-2H-indazol-5-yl)-6-(methyl(1-methylpiperidin-4-yl)amino)quinazolin-4(3H)-one] | > 10000 nM | > 10000 nM | 1000 to 10000 nM | > 10000 nM | > 10000 nM
